The results in this text go back to patent US10081631B2, “2-(1H-indazol-3-yl)-1H-imidazo[4,5-C]pyridine and therapeutic uses thereof” (Samumed, LLC, priority 2014, dated 2018).

pEC50, pIC50: −log10 of the molar value.

Experiment [1] concerns Wnt activity (Sp5-Luc reporter, SW480 colon carcinoma cells). The experiment can be described thus: Screening assay for Wnt activity: Sp5-Luc reporter gene assay in SW480 cells. The class given is cell-based. The note with it: Homo sapiens, 42 h incubation, luminescence. Put shortly:
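IC50 values come from variable-slope four-parameter fits of luciferase signal normalized to DMSO wells. Stable Sp5-Luc reporter SW480 colon carcinoma cells were exposed to compounds in a 3-fold dilution series (source plates from 10 mM stock) for forty-two hours at 37 °C.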

The test system of experiment [2] is primary human fibroblasts derived from IPF patients (LL29 cells). The experiment can be described thus: Inhibition of fibrosis: TGF-β1-treated primary human fibroblasts from IPF patients (LL29), αSMA staining. The class given is cell-based. As to conditions: Fibroblast, 96 h, TGF-β1 20 ng/mL, 4 days, % αSMA-positive cells. An outline of the steps: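 […] (0.1% DMSO) on LL29 cells in F12 with 1% FBS, with TGF-β1 (20 ng/mL) added 1 h after plating; 4 days at 37 °C. SYTOX-positive dead cells were excluded and the % αSMA-positive cells was imaged, normalized to TGF-β1/DMSO wells, triplicates; EC50 by non-linear regression.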

In experiment [1], `CC(C)(C)CC(=O)Nc1cncc(-c2ccc3[nH]nc(-c4nc5c(-c6ccccc6F)nccc5[nH]4)c3c2)c1` [Compound 68, N-(5-(3-(4-(2-Fluorophenyl)-1H-imidazo[4,5-c]pyridin-2-yl)-1H-indazol-5-yl)pyridin-3-yl)-3,3-dimethylbutanamide] had a negative-log IC50 (pIC50) of 7.70. The molecule further had a pEC50 in experiment [2] of 8.05.

In experiment [1], `CC(C)C(=O)Nc1cncc(-c2ccc3[nH]nc(-c4nc5c(-c6cccnc6)nccc5[nH]4)c3c2)c1` [Compound 87, N-(5-(3-(4-(Pyridin-3-yl)-1H-imidazo[4,5-c]pyridin-2-yl)-1H-indazol-5-yl)pyridin-3-yl)isobutyramide] showed a negative-log IC50 (pIC50) of 8.52. Also, the negative logarithm of the EC50 (pEC50) in experiment [2] was 6.53.

Molecule `O=C(CC1CCNCC1)Nc1cncc(-c2ccc3[nH]nc(-c4nc5c(-c6cccc(F)c6)nccc5[nH]4)c3c2)c1` [Compound 1777, N-(5-(3-(4-(3-Fluorophenyl)-1H-imidazo[4,5-c]pyridin-2-yl)-1H-indazol-5-yl)pyridin-3-yl)-2-(piperidin-4-yl)acetamide] showed a pIC50 in experiment [1] of 6.61. Besides, in experiment [2], the pEC50 was 6.97.

In the case of `CCNCc1cncc(-c2ccc3[nH]nc(-c4nc5c(-c6cc(F)cc(NCCN(C)C)c6)nccc5[nH]4)c3c2)c1` [Compound 422, N^1-(3-(2-(5-(5-((Ethylamino)methyl)pyridin-3-yl)-1H-indazol-3-yl)-1H-imidazo[4,5-c]pyridin-4-yl)-5-fluorophenyl)-N^2,N^2-dimethylethane-1,2-diamine], the pIC50 in experiment [1] was 6.97. The same molecule had a pEC50 in experiment [2] of 6.97.

In experiment [1], `Fc1cccc(-c2nccc3[nH]c(-c4n[nH]c5ccc(-c6cnccn6)cc45)nc23)c1` [Compound 1786, 4-(3-Fluorophenyl)-2-(5-(pyrazin-2-yl)-1H-indazol-3-yl)-1H-imidazo[4,5-c]pyridine] showed a pIC50 of 7.46. Further, in experiment [2], the pEC50 was 8.05.

Molecule `CS(=O)(=O)NCc1cc(F)cc(-c2nccc3[nH]c(-c4n[nH]c5ccc(-c6cncnc6)cc45)nc23)c1` [Compound 416, N-(3-Fluoro-5-(2-(5-(pyrimidin-5-yl)-1H-indazol-3-yl)-1H-imidazo[4,5-c]pyridin-4-yl)benzyl)methanesulfonamide] had a negative logarithm of the IC50 (pIC50) in experiment [1] of over 9.00. The molecule further gave a pEC50 in experiment [2] of 7.57.

`CC(C)C(=O)Nc1cncc(-c2ccc3[nH]nc(-c4nc5c(-c6ccccc6F)nccc5[nH]4)c3c2)c1` [Compound 61, N-(5-(3-(4-(2-Fluorophenyl)-1H-imidazo[4,5-c]pyridin-2-yl)-1H-indazol-5-yl)pyridin-3-yl)isobutyramide]: the pIC50 in experiment [1] was 8.30. The molecule further gave a negative-log EC50 (pEC50) in experiment [2] of 7.10.

Turning to `CC(=O)c1ccc(-c2nccc3[nH]c(-c4n[nH]c5ccc(-c6cccnc6)cc45)nc23)s1` [Compound 368, 1-(5-(2-(5-(Pyridin-3-yl)-1H-indazol-3-yl)-1H-imidazo[4,5-c]pyridin-4-yl)thiophen-2-yl)ethan-1-one], in experiment [1], the pIC50 was over 9.00. This molecule had a negative-log EC50 (pEC50) in experiment [2] of 7.85.

Regarding `CCNCc1cncc(-c2ccc3[nH]nc(-c4nc5c(-c6ccoc6)nccc5[nH]4)c3c2)c1` [Compound 266, N-((5-(3-(4-(Furan-3-yl)-1H-imidazo[4,5-c]pyridin-2-yl)-1H-indazol-5-yl)pyridin-3-yl)methyl)ethanamine], in experiment [1], the negative-log IC50 (pIC50) is 7.44. The pEC50 in experiment [2] is 8.05.

In turn, `Fc1cccc(-c2nccc3[nH]c(-c4n[nH]c5ccc(-c6ccncc6)cc45)nc23)c1` [Compound 1784, 4-(3-Fluorophenyl)-2-(5-(pyridin-4-yl)-1H-indazol-3-yl)-1H-imidazo[4,5-c]pyridine] gave a pIC50 in experiment [1] of under 5.00. Also, the pEC50 in experiment [2] is 5.00.

`CN(C)CCNc1cc(F)cc(-c2nccc3[nH]c(-c4n[nH]c5ccc(-c6cncc(CNCC7CCCC7)c6)cc45)nc23)c1` [Compound 440, N^1-(3-(2-(5-(5-(((Cyclopentylmethyl)amino)methyl)pyridin-3-yl)-1H-indazol-3-yl)-1H-imidazo[4,5-c]pyridin-4-yl)-5-fluorophenyl)-N^2,N^2-dimethylethane-1,2-diamine] gave a negative logarithm of the IC50 (pIC50) in experiment [1] of 6.27. Besides, the pEC50 in experiment [2] is 8.05.

In general, pIC50 refers to −log10 of the IC50, conventionally taken in molar units. The low end stands for a high IC50, the high end for a low IC50. As a reminder, the pEC50 is the negative decadic logarithm of the EC50, by convention in mol/L. Low values mean a high EC50, high ones a low EC50.
